Reference: patent US20030040531A1, “Remedies for reperfusion injury containing integrin alphanubeta 3 antagonist” (priority 2000, published 2003)

Key:
platelet aggregation [1] = experiment: inhibition of platelet aggregation, human; format: cell-based; settings: read-out: concentration (IC50) necessary for inhibition of platelet aggregation
[2] = test system: rat vascular smooth muscle cells; experiment: adhesion of rat vascular smooth muscle cells to rat vitronectin; format: cell-based; settings: read-out: concentration (IC50) necessary for inhibition of adhesion to vitronectin
Description: (§1) The adhesion of vascular smooth muscle cells to immobilized human vitronectin was measured in accordance with the method of Liaw et al. (L. Liaw et al., Circ. Res., 74, 214 (1994)). A Dulbecco's phosphate buffer (Dulbecco's PBS(−)) solution of human serum-derived vitronectin adjusted to a concentration of 4 μg/ml was first added to wells (50 μl/well) of a microplate (Maxisorp), and a reaction for immobilization was allowed to proceed at 4° C. overnight. After washing twice with 150 μl of Dulbecco's PBS (−), Dulbecco's PBS (−) containing 10 mg/ml of bovine serum albumin was added, followed by blocking at 37° C. for one hr. The microplate was then washed twice with 150 μl of Dulbecco's PBS (−) to prepare an assay plate.
(§2) Next, 50 μl of a Dulbecco's modified Eagle's basal medium containing 20 mg/ml of bovine serum albumin with a medicament added thereto was added to the wells of the human vitronectin-coated assay microplate, followed by pre-cultivation under 5% carbon dioxide at 37° C. for 10 min. Thereafter, 50 μl of the Dulbecco's modified Eagle's basal medium with human vascular smooth muscle cells suspended therein was added thereto, and the plate was thoroughly stirred. A reaction was allowed to proceed under 5% carbon dioxide at 37° C. for 90 min. The reaction solution containing non-adherent cells was then removed, followed by washing three times with Dulbecco's PBS (−). For the adhered cells, 100 μl of Dulbecco's PBS (−) containing 4% paraformaldehyde was added, and immobilization was allowed to proceed at room temperature for 10 min. Next, 100 μl of a Dulbecco's PBS (−) containing 0.5% Toluidine Blue and 4% paraformaldehyde was added, and staining was allowed to proceed at room temperature for 5 min, followed by thorough washing with distilled water. The inside of the wells was then air-dried, and 1% aqueous sodium dodecylsulfate solution was then added to perform cytolysis. The absorbance of the microplate thus obtained was measured at 595 nm. […] The inhibition was calculated by the following equation. IC50 was determined from a primary regression line of the logarithm of each concentration of the test compound and the logarithm of (100−inhibition)/inhibition. [formula]
(§3) Rat vascular smooth muscle cells were cultivated in a medium composed of a mixture of equal amounts of 15% fetal calf serum-containing 199 medium and RPMI 1640 medium. Separately, hamster and dog vascular smooth muscle cells were cultivated in a 10% fetal calf serum-containing Dulbecco's modified Eagle's basal medium. These cultivated cells were then suspended in a Dulbecco's modified Eagle's basal medium to concentrations of 3×10^5 cells/ml (rat), 3×10^5 cells/ml (hamster), and 4×10^5 cells /ml (dog), respectively. Rat vitronectin was used in the adhesion system of rats and hamsters, while bovine vitronectin was used in the adhesion system of dogs.

platelet aggregation [3] = experiment: inhibition of platelet aggregation, rat; format: cell-based; settings: read-out: concentration (IC50) necessary for inhibition of platelet aggregation
[4] = test system: rat acute myocardial ischemia-reperfusion model; experiment: rat acute myocardial ischemia-reperfusion model; format: in vivo; settings: for myocardial infarct size (proportion of the infarct area in the left ventricle): average value±SE; for influence on the blood pressure and the heart rate: doses at which the infarct inhibition action could be obtained
Description: Male Wistar rats (330 to 420 g) were subjected to controlled respiration using an artificial respirator under pentobarbital anesthesia (60 mg/kg, i.p.), and the blood pressure and the heart rate were measured through a blood pressure amplifier and a heart rate unit. Further, for the ischemia of the myocardium, an increase in voltage of R-wave in the II leading in an electrocardiogram was confirmed with a monitor through a bioelectricity amplifier. The rats underwent thoracotomy, and the coronary artery, together with the myocardium, was then occluded using a suture with a needle. Ischemia for 3 min and reperfusion for 5 min were followed by ischemia for 45 min and reperfusion for 45 min. Medicaments tested and concentrations thereof were 3 mg/kg+3 mg/kg/hr (bolus +infusion) (L; low dose group) and 6 mg/kg+3 mg/kg/hr (bolus +infusion) (H; high dose group) for the compound represented by formula (V); 3 mg/kg+3 mg/kg/hr (bolus +infusion) for the compound represented by formula (VI); 3 mg/kg+3 mg/kg/hr (bolus +infusion) (L; low dose group) and 6 mg/kg+3 mg/kg/hr (bolus +infusion) (H; high dose group) for the compound represented by formula (IV); 5 mg/kg+5 mg/kg/hr(bolus +infusion)(L; low dose group) and 10 mg/kg+10 mg/kg/hr (bolus +infusion) (H; high dose group) for the compound represented by formula (VII); and 1 mg/kg+1 mg/kg/hr (bolus+infusion) (L; low dose group) and 6 mg/kg+6 mg/kg/hr (bolus+infusion) (H; high dose group) for the compound represented by formula (VIII). For a control group (group C), a 10% (v/v) dimethyl sulfoxide/5% glucose solution was administered, and each medicament was dissolved in the same solvent. The dose volume was 3 ml/kg+3 ml/kg/h (bolus+infusion). The medicament was continuously administered through an infusion pump for the period starting with one min before the ischemia and ending with the completion of the experiment. After reperfusion for 45 min, the rats were slaughtered by excessive administration of pentobarbital, and the heart was removed. After perfusion with a Ringer solution, perfusion staining was carried out with 1.5% triphenyltetrazolium chloride, and the proportion of the infarct area in the left ventricle was quantitatively determined. For animals used in the experiment, each group consisted of 5 rats.

integrin αvβ3 = integrin αvβ3 (Homo sapiens, UniProt P05106+P06756); experiment: integrin αvβ3 binding assay (Pharmacological Example 1 in WO 99/38849)
Source text: Whether or not a compound has integrin αvβ3 antagonistic activity may be determined by assaying the antagonistic action by integrin αvβ3 binding assay as described, for example, in Pharmacological Test Example 1 in WO 99/38849.

[5] = test system: human vascular smooth muscle cells; experiment: adhesion of human vascular smooth muscle cells to immobilized human vitronectin; format: cell-based; settings: read-out: concentration (IC50) necessary for inhibition of adhesion to vitronectin
Description: as §1
Separately, human vascular smooth muscle cells cultivated at 37° C. under 5% carbon dioxide in a medium for vascular smooth muscle cells were separated using a Dulbecco's PBS (−) containing trypsin-EDTA, were washed with Dulbecco's PBS (−), and were then suspended in a Dulbecco's modified Eagle's basal medium to a concentration of 2×10^5/ml.
as §2

[6] = test system: dog vascular smooth muscle cells; experiment: adhesion of dog vascular smooth muscle cells to bovine vitronectin; format: cell-based; settings: Canis lupus familiaris, read-out: concentration (IC50) necessary for inhibition of adhesion to vitronectin
Description: as §1, §2, §3

platelet aggregation [7] = experiment: inhibition of platelet aggregation, dog; format: cell-based; settings: Canis lupus familiaris, read-out: concentration (IC50) necessary for inhibition of platelet aggregation
[8] = 3 mg/kg+3 mg/kg/hr (bolus+infusion)
[9] = 3 mg/kg+3 mg/kg/hr (bolus+infusion), n=5

Sequence of integrin αvβ3 (P06756 31-1048): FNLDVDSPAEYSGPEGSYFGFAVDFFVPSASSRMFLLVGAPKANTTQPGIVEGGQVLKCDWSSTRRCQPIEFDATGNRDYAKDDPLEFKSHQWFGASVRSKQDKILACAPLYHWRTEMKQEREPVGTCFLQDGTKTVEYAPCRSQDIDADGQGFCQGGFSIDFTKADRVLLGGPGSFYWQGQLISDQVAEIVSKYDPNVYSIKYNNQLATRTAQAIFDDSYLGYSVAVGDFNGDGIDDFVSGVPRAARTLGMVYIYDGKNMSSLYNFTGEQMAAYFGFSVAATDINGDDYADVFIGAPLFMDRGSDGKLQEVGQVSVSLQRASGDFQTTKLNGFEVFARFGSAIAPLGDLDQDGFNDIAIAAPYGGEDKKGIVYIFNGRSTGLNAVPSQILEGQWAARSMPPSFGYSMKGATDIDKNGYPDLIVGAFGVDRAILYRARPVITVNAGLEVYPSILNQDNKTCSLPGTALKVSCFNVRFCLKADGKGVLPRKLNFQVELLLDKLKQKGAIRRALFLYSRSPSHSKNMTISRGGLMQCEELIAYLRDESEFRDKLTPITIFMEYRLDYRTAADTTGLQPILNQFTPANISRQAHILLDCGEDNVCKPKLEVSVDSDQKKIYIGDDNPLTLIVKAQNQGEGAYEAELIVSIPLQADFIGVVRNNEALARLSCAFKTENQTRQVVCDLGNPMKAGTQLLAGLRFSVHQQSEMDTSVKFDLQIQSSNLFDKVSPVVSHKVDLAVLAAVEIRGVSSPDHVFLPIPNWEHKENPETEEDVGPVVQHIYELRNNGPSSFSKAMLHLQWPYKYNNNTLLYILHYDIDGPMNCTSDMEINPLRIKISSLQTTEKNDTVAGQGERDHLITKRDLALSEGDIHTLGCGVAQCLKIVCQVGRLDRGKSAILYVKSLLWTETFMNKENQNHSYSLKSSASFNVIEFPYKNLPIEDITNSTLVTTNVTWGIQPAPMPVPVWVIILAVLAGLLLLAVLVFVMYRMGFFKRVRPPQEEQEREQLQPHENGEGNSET
Sequence of integrin αvβ3 (P05106 27-788): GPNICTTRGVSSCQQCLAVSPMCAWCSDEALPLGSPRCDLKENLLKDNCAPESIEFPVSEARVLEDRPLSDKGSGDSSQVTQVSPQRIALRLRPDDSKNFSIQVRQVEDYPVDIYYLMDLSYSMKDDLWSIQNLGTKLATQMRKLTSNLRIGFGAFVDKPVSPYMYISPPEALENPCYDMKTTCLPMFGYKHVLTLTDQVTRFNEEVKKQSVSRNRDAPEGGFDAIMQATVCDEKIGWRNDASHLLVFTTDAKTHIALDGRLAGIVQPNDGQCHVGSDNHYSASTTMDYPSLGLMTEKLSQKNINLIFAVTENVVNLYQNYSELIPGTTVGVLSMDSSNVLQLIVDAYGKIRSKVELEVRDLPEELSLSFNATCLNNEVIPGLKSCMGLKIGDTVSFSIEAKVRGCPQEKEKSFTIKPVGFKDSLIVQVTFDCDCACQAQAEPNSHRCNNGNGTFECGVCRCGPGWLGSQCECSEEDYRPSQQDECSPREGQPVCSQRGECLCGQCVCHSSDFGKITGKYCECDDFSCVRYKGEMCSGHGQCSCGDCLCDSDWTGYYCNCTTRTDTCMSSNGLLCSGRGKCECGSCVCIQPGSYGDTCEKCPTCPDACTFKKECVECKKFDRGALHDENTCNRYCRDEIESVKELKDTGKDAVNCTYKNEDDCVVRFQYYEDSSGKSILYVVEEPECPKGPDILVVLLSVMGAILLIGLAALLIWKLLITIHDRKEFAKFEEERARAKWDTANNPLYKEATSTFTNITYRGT

Compound	IC50 (platelet aggregation [1])	IC50 [2]	IC50 (platelet aggregation [3])	reduction of myocardial infarct size as compared with group C [4, 8]	myocardial infarct size (proportion of the infarct area in the left ventricle) [4, 9]	reduction of myocardial infarct size as compared with group C ([4]; 6 mg/kg+3 mg/kg/hr (bolus+infusion), group H)	myocardial infarct size (proportion of the infarct area in the left ventricle) ([4]; 6 mg/kg+3 mg/kg/hr (bolus+infusion), group H, n=5)	influence on the blood pressure and the heart rate [4]	IC50 (integrin αvβ3)	IC50 [5]	reduction of myocardial infarct size as compared with group C ([4]; 1 mg/kg+1 mg/kg/hr (bolus+infusion), group L)	myocardial infarct size (proportion of the infarct area in the left ventricle) ([4]; 1 mg/kg+1 mg/kg/hr (bolus+infusion), group L, n=5, group C 36.0±1.9%)	reduction of myocardial infarct size as compared with group C ([4]; 6 mg/kg+6 mg/kg/hr (bolus+infusion), group H)	myocardial infarct size (proportion of the infarct area in the left ventricle) ([4]; 6 mg/kg+6 mg/kg/hr (bolus+infusion), group H, n=5, group C 36.0±1.9%)	IC50 [6]	IC50 (platelet aggregation [7])	reduction of myocardial infarct size as compared with group C ([4]; 5 mg/kg+5 mg/kg/hr (bolus+infusion), group L)	myocardial infarct size (proportion of the infarct area in the left ventricle) ([4]; 5 mg/kg+5 mg/kg/hr (bolus+infusion), group L, n=5, group C 38.8±[…])	reduction of myocardial infarct size as compared with group C ([4]; 10 mg/kg+10 mg/kg/hr (bolus+infusion), group H)	myocardial infarct size (proportion of the infarct area in the left ventricle) ([4]; 10 mg/kg+10 mg/kg/hr (bolus+infusion), group H, n=5, group C 38.8±[…])
O=C(NCC(NS(=O)(=O)c1ccccc1)C(=O)O)c1ccc(N2CCC(NC3=NCCCN3)CC2)cc1 (stereo in doubt) [formula (V), (2S)-Benzenesulfonylamino-3-[4-{4-(1,4,5,6-tetrahydropyrimidin-2-ylamino)piperidin-1-yl}-benzoylamino]propionic Acid]	63 nM	800 nM	13000 nM	16.1%	39.0±1.7%	35.5%	30.0±1.6%	no influence	1.2 nM	190 nM										
O=C(NCC(NS(=O)(=O)c1ccccc1)C(=O)O)c1ccc(OCCNC2=NCCCN2)cc1 (stereo in doubt) [formula (VI), 4-[2-(3,4,5,6-Tetrahydropyrimidin-2-ylamino)ethyloxy]benzoyl-2(S)-phenylsulfonylamino-β-alanine]	180 nM	450 nM	> 100000 nM	34.8%	30.3±6.1%			no influence	0.39 nM	72 nM										
COc1cc(C(=O)NCC(NS(=O)(=O)c2ccccc2)C(=O)O)ccc1N1CCC(NC2=NCCCN2)CC1 (stereo in doubt) [formula (VIII), (2S)-Benzenesulfonylamino-3-[3-methoxy-4-{4-(1,4,5,6-tetrahydropyrimidin-2-ylamino)-piperidin-1-yl}benzoylamino]propionic Acid]	130 nM	760 nM						no influence	0.14 nM	130 nM	24.2%	27.3±5.2%	32.5%	24.3±3.8%	28 nM	56 nM				
O=C(NC[C@@H](NS(=O)(=O)c1ccccc1)C(=O)O)c1ccc(N2CCCC(NC3=NCCCN3)C2)cc1 (stereo partly drawn) [formula (IX), (2S)-Benzenesulfonylamino-3-[4-{(3S)-(1,4,5,6-tetrahydropyrimidin-2-ylamino)piperidin-1-yl}benzoylamino]propionic Acid]	56 nM	96 nM							0.53 nM	28 nM					11 nM	59 nM				
O=C(NC[C@H](NS(=O)(=O)c1ccc(O)cc1)C(=O)O)c1ccc(N2CCC(NC3=NCCCN3)CC2)c(F)c1 [formula (VII), 3-[3-Fluoro-4-{4-(1,4,5,6-tetrahydropyrimidin-2-ylamino)piperidin-1-yl}benzoylamino]-(2S)-{(4-hydroxybenzenesulfonyl)amino}propionic Acid]	230 nM	640 nM	> 100000 nM					no influence	0.066 nM	69 nM					18 nM	190 nM	24.5%	29.3±1.7%	41.5%	22.7±3.8%
O=C(NC[C@@H](NS(=O)(=O)c1ccccc1)C(=O)O)c1ccc(N2CCCC(NC3=NCCCN3)C2)cc1F (stereo partly drawn) [formula (X), (2S)-Benzenesulfonylamino-3-[2-fluoro-4-{(3S)-(1,4,5,6-tetrahydropyrimidin-2-ylamino)-piperidin-1-yl}benzoylamino]propionic Acid]	410 nM	96 nM							0.16 nM	13 nM					9.7 nM	110 nM				
O=C(NC[C@@H](NS(=O)(=O)c1cccs1)C(=O)O)c1ccc(N2CCCC(NC3=NCCCN3)C2)cc1 (stereo partly drawn) [formula (XI), 3-[4-{(3S)-(1,4,5,6-Tetrahydropyrimidin-2-ylamino)piperidin-1-yl}benzoylamino]-(2S)-{(thiophene-2-sulfonyl)amino}propionic Acid]	95 nM								0.14 nM	24 nM										
